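All cell lines were grown in 96-well plates and treated with compound for 48 hours. TGI: concentration producing complete growth inhibition.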
Tests used:
Test in all cases: NCI tumour cell line growth inhibition, 48 h
[1] = tested on: NCI/ADR-RES ovarian
[2] = tested on: CCRF-CEM leukemia
[3] = tested on: MALME-3M melanoma
[4] = tested on: SK-MEL-2 melanoma
[5] = tested on: NCI-H23 lung
[6] = tested on: RXF 393 renal
[7] = tested on: SN12K1 renal
[8] = tested on: SNB-75 CNS
[9] = tested on: HOP-62 NSCLC
[10] = tested on: OVCAR-8 ovarian
[11] = tested on: COLO 205 colon
[12] = tested on: RPMI-8226 leukemia
[13] = tested on: K-562 leukemia
[14] = tested on: OVCAR-4 ovarian
[15] = tested on: P388/ADR leukemia
[16] = tested on: HT29 colon
[17] = tested on: DMS 114 small cell lung
[18] = tested on: MOLT-4 leukemia
[19] = tested on: DLD-1 colon
[20] = tested on: SF-539 CNS
[21] = tested on: XF 498 CNS
[22] = tested on: HCT-15 colon
[23] = tested on: UACC-257 melanoma
[24] = tested on: SN12C renal
[25] = tested on: SF-295 CNS
[26] = tested on: DMS 273 small cell lung
[27] = tested on: LOX IMVI melanoma
[28] = tested on: SK-MEL-28 melanoma
[29] = tested on: HOP-92 NSCLC
[30] = tested on: M19-MEL melanoma
[31] = tested on: HCT-116 colon
[32] = tested on: CAKI-1 renal
[33] = tested on: HL-60(TB) leukemia
[34] = tested on: UO-31 renal
[35] = tested on: SF-268 CNS
[36] = tested on: A549 NSCLC
[37] = tested on: NCI-H522 lung
[38] = tested on: SK-MEL-5 melanoma
[39] = tested on: UACC-62 melanoma
[40] = tested on: NCI-H460 lung
[41] = tested on: SNB-19 CNS
[42] = tested on: SK-OV-3 ovarian
[43] = tested on: HOP-18 NSCLC
[44] = tested on: A498 renal
[45] = tested on: OVCAR-5 ovarian
[46] = tested on: IGROV1 ovarian
[47] = tested on: NCI-H226 lung
[48] = tested on: SW-620 colon
[49] = tested on: HCC-2998 colon
[50] = tested on: KM20L2 colon
[51] = tested on: MCF7 breast
[52] = tested on: SNB-78 CNS
[53] = tested on: P388 leukemia
[54] = tested on: EKVX NSCLC
[55] = tested on: OVCAR-3 ovarian
[56] = tested on: KM12 colon
[57] = tested on: U251 CNS
[58] = tested on: 786-0 renal
[59] = tested on: LXFL 529 NSCLC
[60] = tested on: M14 melanoma
[61] = tested on: ACHN renal
[62] = tested on: RXF-631 renal
[63] = tested on: TK-10 renal
[64] = tested on: SR leukemia

Structure (SMILES): COc1ccc(C2COc3c(ccc(O)c3C)C2)cc1OC (stereo not drawn)
- TGI [1]: > 200 µM
- TGI [2]: > 200 µM
- TGI [3]: > 200 µM
- TGI [4]: 154 µM
- TGI [5]: > 200 µM
- TGI [6]: 131 µM
- TGI [7]: 154 µM
- TGI [8]: 110 µM
- TGI [9]: > 200 µM
- TGI [10]: > 200 µM
- TGI [11]: 166 µM
- TGI [12]: 166 µM
- TGI [13]: > 200 µM
- TGI [14]: > 200 µM
- TGI [15]: > 113 µM
- TGI [16]: > 200 µM
- TGI [17]: 196 µM
- TGI [18]: > 183 µM
- TGI [19]: > 200 µM
- TGI [20]: 197 µM
- TGI [21]: 124 µM
- TGI [22]: > 200 µM
- TGI [23]: > 200 µM
- TGI [24]: > 200 µM
- TGI [25]: > 176 µM
- TGI [26]: 199 µM
- TGI [27]: 128 µM
- TGI [28]: > 196 µM
- TGI [29]: > 186 µM
- TGI [30]: > 200 µM
- TGI [31]: 153 µM
- TGI [32]: > 200 µM
- TGI [33]: 140 µM
- TGI [34]: 178 µM
- TGI [35]: > 200 µM
- TGI [36]: > 167 µM
- TGI [37]: 142 µM
- TGI [38]: 24.6 µM
- TGI [39]: > 200 µM
- TGI [40]: > 193 µM
- TGI [41]: > 200 µM
- TGI [42]: > 200 µM
- TGI [43]: 30.8 µM
- TGI [44]: > 31.7 µM
- TGI [45]: > 162 µM
- TGI [46]: > 200 µM
- TGI [47]: > 139 µM
- TGI [48]: > 200 µM
- TGI [49]: 121 µM
- TGI [50]: > 200 µM
- TGI [51]: > 200 µM
- TGI [52]: > 200 µM
- TGI [53]: > 125 µM
- TGI [54]: > 200 µM
- TGI [55]: > 195 µM
- TGI [56]: > 200 µM
- TGI [57]: > 200 µM

Structure (SMILES): COc1cc(/C=N\O[Si](C)(C)C(C)(C)C)ccc1O[Si](C)(C)C(C)(C)C
- TGI [2]: > 100 µM
- TGI [3]: > 100 µM
- TGI [4]: > 100 µM
- TGI [58]: > 100 µM
- TGI [6]: > 100 µM
- TGI [8]: > 100 µM
- TGI [9]: > 100 µM
- TGI [10]: > 100 µM
- TGI [11]: > 100 µM
- TGI [12]: > 100 µM
- TGI [13]: > 100 µM
- TGI [14]: > 100 µM
- TGI [16]: > 100 µM
- TGI [17]: 83.4 µM
- TGI [18]: > 100 µM
- TGI [19]: > 100 µM
- TGI [20]: > 100 µM
- TGI [21]: > 100 µM
- TGI [22]: 82.3 µM
- TGI [23]: > 100 µM
- TGI [24]: > 100 µM
- TGI [25]: > 100 µM
- TGI [59]: > 100 µM
- TGI [26]: > 100 µM
- TGI [60]: > 100 µM
- TGI [27]: 62 µM
- TGI [29]: 60.1 µM
- TGI [30]: > 100 µM
- TGI [31]: > 100 µM
- TGI [32]: > 100 µM
- TGI [33]: > 100 µM
- TGI [61]: > 100 µM
- TGI [34]: > 100 µM
- TGI [35]: > 100 µM
- TGI [36]: > 100 µM
- TGI [62]: 71.6 µM
- TGI [38]: > 100 µM
- TGI [39]: > 100 µM
- TGI [40]: > 100 µM
- TGI [41]: > 100 µM
- TGI [42]: > 100 µM
- TGI [43]: > 100 µM
- TGI [45]: 68.7 µM
- TGI [46]: > 100 µM
- TGI [48]: > 100 µM
- TGI [49]: 56.8 µM
- TGI [50]: > 100 µM
- TGI [63]: > 100 µM
- TGI [52]: > 100 µM
- TGI [54]: > 100 µM
- TGI [55]: 54.1 µM
- TGI [56]: > 100 µM
- TGI [57]: 71.5 µM

Structure (SMILES): C[Si](C)(C)CN1C(=O)c2ccccc2C1(O)c1ccccc1 (stereo not drawn)
- TGI [2]: > 100 µM
- TGI [3]: > 100 µM
- TGI [4]: > 100 µM
- TGI [5]: > 100 µM
- TGI [58]: > 100 µM
- TGI [6]: > 100 µM
- TGI [8]: > 100 µM
- TGI [9]: > 100 µM
- TGI [10]: > 100 µM
- TGI [11]: > 100 µM
- TGI [13]: > 100 µM
- TGI [14]: > 100 µM
- TGI [16]: > 100 µM
- TGI [17]: > 100 µM
- TGI [18]: > 100 µM
- TGI [19]: > 100 µM
- TGI [20]: > 100 µM
- TGI [21]: > 100 µM
- TGI [22]: > 100 µM
- TGI [23]: > 100 µM
- TGI [24]: > 100 µM
- TGI [25]: > 100 µM
- TGI [59]: > 100 µM
- TGI [26]: > 100 µM
- TGI [60]: > 100 µM
- TGI [27]: > 100 µM
- TGI [28]: > 100 µM
- TGI [29]: 97.9 µM
- TGI [31]: > 100 µM
- TGI [64]: > 100 µM
- TGI [32]: > 91.6 µM
- TGI [33]: > 100 µM
- TGI [61]: > 100 µM
- TGI [34]: > 100 µM
- TGI [35]: > 100 µM
- TGI [36]: > 100 µM
- TGI [37]: > 100 µM
- TGI [62]: > 100 µM
- TGI [38]: > 100 µM
- TGI [39]: > 100 µM
- TGI [40]: > 100 µM
- TGI [41]: > 100 µM
- TGI [43]: > 100 µM
- TGI [44]: > 100 µM
- TGI [45]: > 100 µM
- TGI [46]: > 100 µM
- TGI [47]: > 100 µM
- TGI [48]: > 100 µM
- TGI [49]: > 100 µM
- TGI [50]: > 100 µM
- TGI [63]: > 100 µM
- TGI [52]: > 100 µM
- TGI [54]: > 100 µM
- TGI [55]: > 100 µM
- TGI [56]: > 100 µM
- TGI [57]: > 100 µM

Structure (SMILES): CN(C)CCNC(=O)c1cccc2[nH]c(-c3ccccn3)nc12
- TGI [1]: > 87.7 µM
- TGI [2]: > 100 µM
- TGI [3]: > 65.4 µM
- TGI [4]: > 100 µM
- TGI [5]: > 100 µM
- TGI [6]: > 100 µM
- TGI [7]: > 100 µM
- TGI [8]: 92.8 µM
- TGI [9]: > 90.8 µM
- TGI [10]: > 100 µM
- TGI [11]: 33.6 µM
- TGI [12]: 62.3 µM
- TGI [13]: > 100 µM
- TGI [14]: > 78.6 µM
- TGI [15]: 53.5 µM
- TGI [16]: > 66.7 µM
- TGI [17]: > 80.2 µM
- TGI [18]: 70.6 µM
- TGI [19]: > 100 µM
- TGI [20]: > 100 µM
- TGI [21]: > 100 µM
- TGI [22]: > 100 µM
- TGI [23]: > 93.6 µM
- TGI [24]: > 100 µM
- TGI [25]: > 100 µM
- TGI [26]: > 72.2 µM
- TGI [27]: > 90.1 µM
- TGI [28]: > 58 µM
- TGI [29]: 80.8 µM
- TGI [30]: > 91.8 µM
- TGI [31]: > 65.2 µM
- TGI [32]: 78.1 µM
- TGI [33]: > 78.7 µM
- TGI [34]: > 72.4 µM
- TGI [35]: > 59.3 µM
- TGI [36]: > 100 µM
- TGI [37]: > 63.8 µM
- TGI [38]: 48.7 µM
- TGI [39]: 42.7 µM
- TGI [40]: > 58.4 µM
- TGI [41]: > 100 µM
- TGI [42]: > 100 µM
- TGI [43]: > 87 µM
- TGI [44]: > 94.8 µM
- TGI [45]: > 100 µM
- TGI [46]: > 100 µM
- TGI [47]: 60.8 µM
- TGI [48]: > 100 µM
- TGI [49]: > 100 µM
- TGI [50]: > 100 µM
- TGI [51]: > 100 µM
- TGI [52]: > 100 µM
- TGI [53]: 34.7 µM
- TGI [54]: > 100 µM
- TGI [55]: > 100 µM
- TGI [56]: > 100 µM
- TGI [57]: > 100 µM
